Assays:
OVCAR-5 [1] = experiment: NCI60 one-dose screen (10 μM), Ovarian Cancer; type: cell-based; conditions: Homo sapiens; 10 μM; OVCAR-5, Ovarian Cancer; read-out: Growth percent rate
HCT-15 = experiment: NCI60 five-dose screen, Colon Cancer; type: cell-based; conditions: Homo sapiens; HCT-15, Colon Cancer; five-dose screen; read-out: GI50
SR [2] = experiment: NCI60 five-dose screen, Leukemia; type: cell-based; conditions: Homo sapiens, Leukemia, five-dose screen, read-out: GI50
NCI-H460 = experiment: NCI60 five-dose screen, Non-small Cell Lung Cancer; type: cell-based; conditions: Homo sapiens; NCI-H460, Non-small Cell Lung Cancer; five-dose screen; read-out: GI50
M14 [3] = experiment: NCI60 one-dose screen (10 μM), Melanoma; type: cell-based; conditions: Homo sapiens; 10 μM; M14, Melanoma; read-out: Growth percent rate
T-47D [4] = experiment: NCI60 five-dose screen, Breast Cancer; type: cell-based; conditions: Homo sapiens, T47D; T-47D, Breast Cancer; five-dose screen; read-out: GI50
SW-620 = experiment: NCI60 five-dose screen, Colon Cancer; type: cell-based; conditions: Homo sapiens; SW-620, Colon Cancer; five-dose screen; read-out: GI50
HCC-2998 [5] = experiment: NCI60 five-dose screen, Colon Cancer; type: cell-based; conditions: Homo sapiens; HCC-2998, Colon Cancer; five-dose screen; read-out: GI50
DU-145 = experiment: NCI60 one-dose screen (10 μM), Prostate Cancer; type: cell-based; conditions: Homo sapiens; 10 μM; DU-145, Prostate Cancer; read-out: Growth percent rate
UACC-62 = experiment: NCI60 one-dose screen (10 μM), Melanoma; type: cell-based; conditions: Homo sapiens; 10 μM; UACC-62, Melanoma; read-out: Growth percent rate
MDA-MB231ATCC = experiment: NCI60 five-dose screen, Breast Cancer; type: cell-based; conditions: Homo sapiens, MDA-MB-231; MDA-MB231ATCC, Breast Cancer; five-dose screen; read-out: GI50
U251 = experiment: NCI60 five-dose screen, CNS Cancer; type: cell-based; conditions: Homo sapiens, U-251; U251, CNS Cancer; five-dose screen; read-out: GI50
SK-MEL-5 [6] = experiment: NCI60 five-dose screen, Melanoma; type: cell-based; conditions: Homo sapiens; SK-MEL-5, Melanoma; five-dose screen; read-out: GI50
HT29 = experiment: NCI60 one-dose screen (10 μM), Colon Cancer; type: cell-based; conditions: Homo sapiens, HT-29; 10 μM; HT29, Colon Cancer; read-out: Growth percent rate
MDA-MB-435 = experiment: NCI60 five-dose screen, Melanoma; type: cell-based; conditions: Homo sapiens; MDA-MB-435, Melanoma; five-dose screen; read-out: GI50
MDA-MB-468 [7] = experiment: NCI60 one-dose screen (10 μM), Breast Cancer; type: cell-based; conditions: Homo sapiens; 10 μM; MDA-MB-468, Breast Cancer; read-out: Growth percent rate
OVCAR-4 = experiment: NCI60 five-dose screen, Ovarian Cancer; type: cell-based; conditions: Homo sapiens; OVCAR-4, Ovarian Cancer; five-dose screen; read-out: GI50
SK-OV-3 = experiment: NCI60 one-dose screen (10 μM), Ovarian Cancer; type: cell-based; conditions: Homo sapiens; 10 μM; SK-OV-3, Ovarian Cancer; read-out: Growth percent rate
M14 [8] = experiment: NCI60 five-dose screen, Melanoma; type: cell-based; conditions: Homo sapiens; M14, Melanoma; five-dose screen; read-out: GI50
TK-10 = experiment: NCI60 five-dose screen, Renal Cancer; type: cell-based; conditions: Homo sapiens; TK-10, Renal Cancer; five-dose screen; read-out: GI50
IGROV1 = experiment: NCI60 five-dose screen, Ovarian Cancer; type: cell-based; conditions: Homo sapiens, IGROV-1; IGROV1, Ovarian Cancer; five-dose screen; read-out: GI50
BT-549 [9] = experiment: NCI60 five-dose screen, Breast Cancer; type: cell-based; conditions: Homo sapiens; BT-549, Breast Cancer; five-dose screen; read-out: GI50
HOP-92 = experiment: NCI60 one-dose screen (10 μM), Non-small Cell Lung Cancer; type: cell-based; conditions: Homo sapiens; 10 μM; HOP-92, Non-small Cell Lung Cancer; read-out: Growth percent rate
PC-3 [10] = experiment: NCI60 five-dose screen, Prostate Cancer; type: cell-based; conditions: Homo sapiens; PC-3, Prostate Cancer; five-dose screen; read-out: GI50
SF-268 = experiment: NCI60 five-dose screen, CNS Cancer; type: cell-based; conditions: Homo sapiens; SF-268, CNS Cancer; five-dose screen; read-out: GI50
UO-31 = experiment: NCI60 one-dose screen (10 μM), Renal Cancer; type: cell-based; conditions: Homo sapiens; 10 μM; UO-31, Renal Cancer; read-out: Growth percent rate
OVCAR-5 [11] = experiment: NCI60 five-dose screen, Ovarian Cancer; type: cell-based; conditions: Homo sapiens; OVCAR-5, Ovarian Cancer; five-dose screen; read-out: GI50
T-47D [12] = experiment: NCI60 one-dose screen (10 μM), Breast Cancer; type: cell-based; conditions: Homo sapiens, T47D; 10 μM; T-47D, Breast Cancer; read-out: Growth percent rate
PC-3 [13] = experiment: NCI60 one-dose screen (10 μM), Prostate Cancer; type: cell-based; conditions: Homo sapiens; 10 μM; PC-3, Prostate Cancer; read-out: Growth percent rate
MDA-MB-468 [14] = experiment: NCI60 five-dose screen, Breast Cancer; type: cell-based; conditions: Homo sapiens; MDA-MB-468, Breast Cancer; five-dose screen; read-out: GI50
SNB-19 = experiment: NCI60 one-dose screen (10 μM), CNS Cancer; type: cell-based; conditions: Homo sapiens; 10 μM; SNB-19, CNS Cancer; read-out: Growth percent rate
BT-549 [15] = experiment: NCI60 one-dose screen (10 μM), Breast Cancer; type: cell-based; conditions: Homo sapiens; 10 μM; BT-549, Breast Cancer; read-out: Growth percent rate
SR [16] = experiment: NCI60 one-dose screen (10 μM), Leukemia; type: cell-based; conditions: Homo sapiens, 10 μM, Leukemia, read-out: Growth percent rate
HCC-2998 [17] = experiment: NCI60 one-dose screen (10 μM), Colon Cancer; type: cell-based; conditions: Homo sapiens; 10 μM; HCC-2998, Colon Cancer; read-out: Growth percent rate
LOX IMVI = experiment: NCI60 five-dose screen, Melanoma; type: cell-based; conditions: Homo sapiens, Melanoma, five-dose screen, read-out: GI50
A549/ATCC = experiment: NCI60 five-dose screen, Non-small Cell Lung Cancer; type: cell-based; conditions: Homo sapiens; A549/ATCC, Non-small Cell Lung Cancer; five-dose screen; read-out: GI50
OVCAR-3 = experiment: NCI60 five-dose screen, Ovarian Cancer; type: cell-based; conditions: Homo sapiens; OVCAR-3, Ovarian Cancer; five-dose screen; read-out: GI50
NCI-H226 = experiment: NCI60 one-dose screen (10 μM), Non-small Cell Lung Cancer; type: cell-based; conditions: Homo sapiens; 10 μM; NCI-H226, Non-small Cell Lung Cancer; read-out: Growth percent rate
ACHN = experiment: NCI60 five-dose screen, Renal Cancer; type: cell-based; conditions: Homo sapiens, Renal Cancer, five-dose screen, read-out: GI50
HL-60(TB) = experiment: NCI60 five-dose screen, Leukemia; type: cell-based; conditions: Homo sapiens; HL-60(TB), Leukemia; five-dose screen; read-out: GI50
HS 578T = experiment: NCI60 five-dose screen, Breast Cancer; type: cell-based; conditions: Homo sapiens; HS 578T, Breast Cancer; five-dose screen; read-out: GI50
NCI/ADR-RES = experiment: NCI60 five-dose screen, Ovarian Cancer; type: cell-based; conditions: Homo sapiens, Ovarian Cancer, five-dose screen, read-out: GI50
MDA-MB-231/ATCC = experiment: NCI60 one-dose screen (10 μM), Breast Cancer; type: cell-based, human; conditions: Homo sapiens; 10 μM; MDA-MB-231/ATCC, Breast Cancer; read-out: Growth percent rate
SK-MEL-5 [18] = experiment: NCI60 one-dose screen (10 μM), Melanoma; type: cell-based, human; conditions: Homo sapiens; 10 μM; SK-MEL-5, Melanoma; read-out: Growth percent rate
K-562 = experiment: NCI60 five-dose screen, Leukemia; type: cell-based; conditions: Homo sapiens, K562; K-562, Leukemia; five-dose screen; read-out: GI50

**Q.** Which results are given for CC[C@]12C=CCN3CC[C@@]4(c5ccc(OC)cc5N(C)[C@H]4[C@@](O)(C(=O)OC)[C@@H]1OC(=O)CCC(=O)N1CCN(Cc4ccc(C(F)(F)F)cc4)CC1)[C@@H]32 [Compound 29]?
**A.** activity at 10 µM (OVCAR-5 [1]): 15.2%; GI50 (HCT-15): 10.2 µM; GI50 (SR [2]): 13.8 µM; GI50 (NCI-H460): 10.5 µM; activity at 10 µM (M14 [3]): -20.3%; GI50 (T-47D [4]): 5.25 µM; GI50 (SW-620): 11.5 µM; GI50 (HCC-2998 [5]): 12.9 µM; activity at 10 µM (DU-145): 20.3%; activity at 10 µM (UACC-62): -19.7%; GI50 (MDA-MB231ATCC): 14.1 µM; GI50 (U251): 11.2 µM; GI50 (SK-MEL-5 [6]): 3.89 µM; activity at 10 µM (HT29): -10%; GI50 (MDA-MB-435): 10.5 µM; activity at 10 µM (MDA-MB-468 [7]): -20.5%; GI50 (OVCAR-4): 5.62 µM; activity at 10 µM (SK-OV-3): 12.4%; GI50 (M14 [8]): 8.13 µM; GI50 (TK-10): 12.3 µM; GI50 (IGROV1): 10.7 µM; GI50 (BT-549 [9]): 15.1 µM; activity at 10 µM (HOP-92): -22.6%; GI50 (PC-3 [10]): 3.39 µM; GI50 (SF-268): 5.75 µM; activity at 10 µM (UO-31): 5.16%; GI50 (OVCAR-5 [11]): 14.5 µM; activity at 10 µM (T-47D [12]): 24%; activity at 10 µM (PC-3 [13]): 2.13%; GI50 (MDA-MB-468 [14]): 1.95 µM; activity at 10 µM (SNB-19): 20.1%; activity at 10 µM (BT-549 [15]): -54.5%; activity at 10 µM (SR [16]): -48.3%; activity at 10 µM (HCC-2998 [17]): -52.6%; GI50 (LOX IMVI): 13.8 µM; GI50 (A549/ATCC): 8.32 µM; GI50 (OVCAR-3): 6.46 µM; activity at 10 µM (NCI-H226): 16.7%; GI50 (ACHN): 10.7 µM; GI50 (HL-60(TB)): 12.9 µM; GI50 (HS 578T): 10.2 µM; GI50 (NCI/ADR-RES): 12.3 µM; activity at 10 µM (MDA-MB-231/ATCC): 3.02%; activity at 10 µM (SK-MEL-5 [18]): -90.9%; GI50 (K-562): 3.8 µM

Reference: publication PMC11277489, “Novel Piperazine Derivatives of Vindoline as Anticancer Agents” (International Journal of Molecular Sciences, 2024)
